The record followed here is US20260125736A1, “FURIN SENSORS AND APPLICATIONS THEREOF” (FLAREON BIOTECH GMBH, priority 2023, published 2026).

Assay [1] deals with T1, furin (Homo sapiens, UniProt P09958). Put plainly: Peptide cleavage by furin, analysed by HPLC (AUC of main peak vs negative control without furin). The following applies: cleavage of PSL via furin within 15 min; 0.1 mM peptide, 1 U furin, 37° C., n=3.
Experimental: Lyophilized peptides were solubilized in furin buffer (100 mM HEPES pH 7.5, 5 mM CaCl2) to 1 mM stock solutions. Cleavage was performed at 37° C. under rigorous shaking in 30 μL furin buffer containing 0.1 mM of the respective peptide and 1 U furin per reaction. The reaction was stopped via addition of 5 mM EDTA final concentration. Experiments were performed n=3.
Analytical HPLC was carried out via an Agilent 1260 infinity II HPLC (Agilent Technologies Inc., Waldbronn, Germany) using a Zorbax 300SB-CN 5 μm analytical 4.6×150 mm LC column (Agilent Technologies Inc., Waldbronn, Germany) The device was equipped with a diode array detector (G7115A, Agilent), a fluorescence detector (G7121A, Agilent), an automatic vial sampler (G7129C, Agilent), flexible Pump (G7104C, Agilent), and multicolumn oven (G7116A, Agilent). Mobile phase A was 0.1% TFA in Millipore water. Mobile phase B was ACN with 0.1% TFA, flow was set to 1 ml/min, injection volume was 15 μl, and the wavelength of the detector was set to A=214 nm. […]
Cleavage percent was analyzed by comparing the area under the curve (AUC) of the main peak from the respective peptide incubated with furin, compared to a negative control without furin.
The next assay has as its system HNSCC tumor tissue. Put plainly: FRET-based sensor tissue incubation (fluorescence, ex 340 nm / em 490 nm). The format is cell-based, human. The following applies: 10 μM sensor, incubation over 60 min, 37° C., cleavage determined against blank (intact sensor). The method, then:
All included patients were diagnosed with primary oral squamous cell carcinoma (OSCC). Patients suffering from other tumor entities as well as inoperable cases were excluded from this study.
After performing preoperative tumor staging and incisional biopsy to confirm the diagnosis, stage-appropriate tumor resection, lymph-node dissection, and reconstruction took place. Tumor resection was performed in the usual way, which included using separate margins for frozen section analysis in order to confirm in sano resection. […]
Tissues were stored on ice in sterile filtered in cell culture medium (RPMI-1640, Dutch modification, 10% FCS, 1% Penicillin/Streptomycin, Nystatin). […] After the 24h incubation, one of the tumor tissues was analyzed using FDA. […] The tumor tissue was incubated for 5 min and analyzed via Axio Observer.Z1 microscope equipped with an A-Plan 10×/0.25 Ph1 objective (Zeiss), 38 HE Green Fluorescent Protein (λex=450-490 nm, λem=500-550 nm) and a mercury vapor short-arc lamp.
Tissues were prepared as described before. […] The tissues were incubated at 37° C. and analyzed at t=0, 5, 10, 15, 20, 25, 30, 40, 50 and 60 min via an Infinite M plex (Tecan trading AG, Mannedorf, Switzerland) with an excitation wavelength of λ=340 nm and an emission wavelength of λ=490 nm. […]

Another assay relates to HNSCC tissue. It is filed as cell-based, human.
Assay [2] has as its target T1, furin. Briefly: Cleavage of FRET sensors by furin / illumination of C1S. It is filed as biochemical. The following applies: C1S 10 μM incubated with furin for 60 min, illuminated at 350 nm; compared with C1S without furin. As for the experimental part: Negative controls were performed without furin. Experiments were performed n=3. The samples were analyzed using an Infinite M plex (Tecan trading AG, Mannedorf, Switzerland) with an excitation wavelength of λ=340 nm and an emission wavelength of A =490 nm.
Sensor C1S was incubated as described before under cleavage of FRET sensors with and without furin for 60 min and illuminated via Universal UV Lampe (CAMAG, Germany) with λ=350 nm.

Primed or numbered codes have the meaning given here. Ends that are not written are not given here. * marks the point of attachment. Dabcyl′ = 4-((4-(dimethylamino)phenyl)azo)benzoic acid, CN(C)c1ccc(/N=N/c2ccc(C(=O)*)cc2)cc1; EDANS = O=S(=O)(O)c1cccc2c(NCCN*)cccc12

T1 sequence (P09958 108-794): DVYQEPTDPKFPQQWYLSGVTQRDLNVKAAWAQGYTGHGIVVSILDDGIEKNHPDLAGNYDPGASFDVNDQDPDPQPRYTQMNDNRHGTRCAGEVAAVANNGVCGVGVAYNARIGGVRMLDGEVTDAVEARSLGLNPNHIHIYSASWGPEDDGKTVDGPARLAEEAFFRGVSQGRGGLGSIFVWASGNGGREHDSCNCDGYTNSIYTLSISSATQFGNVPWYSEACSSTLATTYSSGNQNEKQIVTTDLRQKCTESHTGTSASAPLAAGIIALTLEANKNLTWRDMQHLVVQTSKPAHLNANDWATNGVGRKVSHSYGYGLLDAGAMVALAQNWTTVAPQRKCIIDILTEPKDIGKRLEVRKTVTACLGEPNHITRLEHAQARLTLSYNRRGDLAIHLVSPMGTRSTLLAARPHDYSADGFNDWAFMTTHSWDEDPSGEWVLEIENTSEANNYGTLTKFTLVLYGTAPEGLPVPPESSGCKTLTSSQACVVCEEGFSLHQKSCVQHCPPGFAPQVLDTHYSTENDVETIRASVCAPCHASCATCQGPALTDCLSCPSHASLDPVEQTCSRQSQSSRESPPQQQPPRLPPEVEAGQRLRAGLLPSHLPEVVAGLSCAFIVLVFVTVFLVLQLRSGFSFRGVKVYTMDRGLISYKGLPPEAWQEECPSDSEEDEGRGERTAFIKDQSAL

In turn, RTAMSAGA [Z5] returned a Cleavage with furin [1] of 26.16%.
On to “Ac-K(Dabcyl)-RRARSVAS-E(Edans) (Ac-K(Dabcyl′)RRARSVASE(EDANS)) [C1S]”, for which the “fold increase of sensor cleavage of the tumor tissue compared to healthy tissue” value in the assay with HNSCC tumor tissue was > 2 fold. The “time after which a fluorescent signal difference between HNSCC and healthy tissue is visually recognizable” value with HNSCC tissue is 5 min. For the same substance, the “fluorescence observed visually after incubation with furin” value with furin [2] is on record as “distinct cyan fluorescence”.
Regarding “Ac-EG-K(Dabcyl)-RTAMTAGA-E(Edans)-GE (Ac-EGK(Dabcyl′)RTAMTAGAE(EDANS)GE) [Z3S]”, in the assay with HNSCC tissue, the “time after which a fluorescent signal difference between HNSCC and healthy tissue is visually recognizable” value is 35 min; the “visual difference between healthy and HNSCC tissues in the first 30 minutes” value is “no difference could be observed”.
